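Each compound was tested at five concentrations against cells in 96-well plates for 48 hours. The concentration for 50% growth inhibition is given as GI50. Definition used: TGI = concentration required for complete inhibition of growth.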
What was measured:
Assay in all cases: inhibition of tumour cell growth, NCI panel, 48 h
K-562 leukemia = tested on: K-562 leukemia
SF-539 CNS = tested on: SF-539 CNS
HCC-2998 colon = tested on: HCC-2998 colon
HCT-15 colon = tested on: HCT-15 colon
M14 melanoma = tested on: M14 melanoma
LOX IMVI melanoma = tested on: LOX IMVI melanoma
SK-OV-3 ovarian = tested on: SK-OV-3 ovarian
SNB-75 CNS = tested on: SNB-75 CNS
MDA-MB-435 = tested on: MDA-MB-435

Structure (SMILES) | TGI (K-562 leukemia) | TGI (SF-539 CNS) | TGI (HCC-2998 colon) | TGI (HCT-15 colon) | TGI (M14 melanoma) | TGI (LOX IMVI melanoma) | TGI (SK-OV-3 ovarian) | TGI (SNB-75 CNS) | GI50 (K-562 leukemia) | GI50 (SF-539 CNS) | GI50 (HCC-2998 colon) | GI50 (HCT-15 colon) | GI50 (M14 melanoma) | GI50 (LOX IMVI melanoma) | GI50 (MDA-MB-435) | TGI (MDA-MB-435) | GI50 (SK-OV-3 ovarian) | GI50 (SNB-75 CNS)
CCCCCCCCCCCc1nnc(N)o1 | > 100 µM | > 100 µM | > 100 µM | > 100 µM | > 100 µM | > 100 µM | > 100 µM | > 100 µM |  |  |  |  |  |  |  |  |  | 
CC(C)=CC1C[C@H](C2CC=C3C2(C)CCC2[C@@]3(C)C(=O)CC3[C@]2(C)C=CC(=O)[C@]3(C)CO)CO1 (stereo not given in full) | 31.3 µM | 11.9 µM | 30 µM | 40.5 µM | 12.1 µM | 9.45 µM | 39.6 µM | 23.1 µM |  |  |  |  |  |  |  |  |  | 
O=C(O)CCCSC(=O)Nc1ccc(N=Nc2ccccc2)cc1 | > 100 µM | > 100 µM | > 100 µM | > 100 µM | > 100 µM | > 100 µM |  |  |  |  |  |  |  |  |  |  |  | 
O=C(O)CCN(CCCCN(CCC(=O)O)CCC(=O)O)CCC(=O)O | > 100 µM | > 100 µM | > 100 µM | > 100 µM | > 100 µM | > 100 µM | > 100 µM | > 100 µM |  |  |  |  |  |  |  |  |  | 
CC1(C)O[C@H]2[C@H](O)C[C@](O)(CO)C[C@H]2O1 | > 100 µM | > 100 µM |  | > 100 µM | > 100 µM |  | > 100 µM | > 100 µM |  |  |  |  |  |  |  |  |  | 
CC1=C(c2ccccc2)C(c2ccccc2)=C(c2ccccc2)C2(c3ccccc3)C(=O)C(C)CN12 (stereo not given) |  | > 100 µM | > 100 µM | > 100 µM | > 100 µM | > 100 µM | > 100 µM | 64.5 µM |  |  |  |  |  |  |  |  |  | 
O=C1N(C2CCCCC2)CC12CCCCC2 | > 100 µM | > 100 µM | > 100 µM | > 100 µM | > 100 µM | > 100 µM | > 100 µM | > 100 µM |  |  |  |  |  |  |  |  |  | 
O=C(O)C1=C(O)C(C(=O)O)C23CCCCCCCCCCC12C(C(=O)O)C(O)=C3C(=O)O (stereo not given) | > 100 µM | > 100 µM | > 100 µM | > 100 µM | > 100 µM |  | > 100 µM |  |  |  |  |  |  |  |  |  |  | 
C=CCNC(=O)N(CCCCC(NC(C)=O)C(=O)NCc1ccccc1)Cc1ccccc1 (stereo not given) | > 100 µM | > 100 µM |  | > 100 µM | > 100 µM | > 100 µM | > 100 µM | > 100 µM |  |  |  |  |  |  |  |  |  | 
COc1cc(Br)c(C=Nc2cccc3cc(OC)c(OC)cc23)cc1OC | > 100 µM | 66.9 µM | > 100 µM | > 100 µM | > 100 µM | > 100 µM | > 100 µM | 59 µM |  |  |  |  |  |  |  |  |  | 
COc1ccc(C23C(=O)c4ccccc4N2O[C@H]2C(=O)N(c4ccccc4)C(=O)[C@H]23)cc1 (stereo not given in full) | > 100 µM | > 100 µM | > 100 µM | > 100 µM | > 100 µM | > 100 µM | > 100 µM | > 100 µM |  |  |  |  |  |  |  |  |  | 
CCOC(=O)C12CCCC1(O)N(NC(=O)OC(C)(C)C)C(C)=C2C(=O)OC (stereo not given) | > 100 µM | > 100 µM | > 100 µM | > 100 µM | > 100 µM | > 100 µM | > 100 µM |  |  |  |  |  |  |  |  |  |  | 
COc1ccc(C(=S)N2CCN(c3cccc(C)c3)CC2)cc1OC | > 100 µM | > 100 µM | > 100 µM | > 100 µM | > 100 µM | > 100 µM | > 100 µM | 11.9 µM | 1.2 µM | 5.1 µM | 5.41 µM | 3.77 µM | 3.18 µM | 5.46 µM | 1.09 µM | 4.04 µM | 7.24 µM | 2.16 µM
